Marks after values point to notes of the source that are not given here.
How the values were obtained:
[1] = tested on: hippocampal neurons; experiment: Neurite outgrowth, hippocampal neurons; assay type: cell-based, rat; conditions: at 0.3 μg/ml
Procedure: (§1) The cultures were subsequently immunostained for tyrosine hydroxylase. Hippocampal neurons and CGN were plated at a density of 10,000 cells/cm^2 on 8-well permanox chamber slides and incubated for 24 hours in the presence of various concentrations of FGLd. Subsequently the neurons were immunostained for GAP-43. Results from at least five independent experiments for each neuronal culture are shown as percentage ±SEM with the untreated controls set at 100%. *p<0.05, **p<0.01, ***p<0.001 when compared to the controls.
Results from at least four independent experiments are shown as percentage SEM with untreated controls set at 100%. **p<0.01 when compared to the controls.
(§2) Peptide solutions without or with inhibitors of various signal transduction pathways were added to a total volume of 300 μl/cm^2, and the slides were incubated at 37° C. After 24 hours, the neurons were fixed with 4% (v/v) formaldehyde for 20 minutes and thereafter immunostained using primary rabbit antibodies against GAP-43 and Alexa Fluor secondary goat anti-rabbit antibodies. Images of at least 200 neurons for each group in each individual experiment were obtained systematically by using computer assisted fluorescence microscopy as previously described (Rønn et al., 2000 op. cit.). Briefly, a Nikon Diaphot inverted microscope with a Nikon Plan 20× objective (Nikon, Tokyo, Japan) coupled to a video camera (Grundig Electronics, Germany) was used for recordings. The same software package as described above for the dopaminergic neurite outgrowth assay was used to process the recorded images.

[2] = tested on: FGL-induced neurite outgrowth in CGN cultures; experiment: Effect of inhibitors of FGFR, MEK and PI3K on FGL-induced neurite outgrowth in CGN; assay type: cell-based, rat; conditions: Rattus norvegicus, 27 μg/ml FGLd, FGLd-treated control = 100%, read-out: FGLd-induced neurite outgrowth in CGN in presence of inhibitor
Procedure: CGN cultures were grown for 24 hours at a density of 10,000 cells/cm^2 on 8-well permanox slides in the presence of the FGL peptide and an inhibitor. PD98059 ([…]) was added at concentrations of 12.5, 25 and 50 μM simultaneously with 10 μg/ml FGLd; LY294002 (▴) was added at concentrations of 3.5, 7 and 10 μM simultaneously with 27 μg/ml FGLd. SU5402 (▪) was added in concentrations of 20, 40 and 80 μM simultaneously with 27 μg/ml FGLd. After the treatment cells were fixed and immunostained for GAP-43. Results from at least four independent experiments are shown as percentage ±SEM, with FGLd-treated control cultures set at 100%. The dashed line indicates the average neurite length in cultures without FGLd-treatment. *p<0.05, **p<0.01 when compared to the FGLd-treated controls.
as §2

[3] = tested on: organotypic hippocampal neuronal slice cultures (OHSC); experiment: OGD, propidium iodide staining of OHSC; assay type: cell-based, rat; conditions: control peptide
Excerpt: In the present study it was investigated the effect of the FGL peptide on synaptic plasticity, neuronal function and vulnerability following oxygen and glucose deprivation (OGD) in organotypic hippocampal neuronal slice cultures (OHSC) from 7-day-old Wistar rats according to method of Stoppini et al. (1991) Neurosci Methods. 37:173-82 and primary cultures of dissociated hippocampal neurons from 1-day-old rats according to method of Maar et al. (1997) J Neurosci Res. 47:163-72. Primary cell cultures were maintained for 11-12 days and OHSC for 12-14 days prior to adding FGLd.
The primary cell cultures and OHSC were exposed to OGD for 10 and 20 minutes. Following OGD, the cultures were again supplied with oxygen and glucose and analysed at 1, 4 or 24 hour time point after introduction of OGD exposure. FGLd (or the control peptide FGLc) was added 24 hr before, immediately, or 1 hr or 24 hr after OGD. When administered prior to OGD, FGLd was removed from the medium when introducing OGD. In some cases, the slice cultures were treated with FGLd only at 4 hr after OGD. In addition, the FGFR inhibitor, SU5402 (25 μM), was added together with FGLd in some of the set-ups.
In hippocampal neuronal cultures, FM 1-43 staining was used to evaluate pre-synaptic function (described above). Cell viability in both primary cell cultures and OHSC was measured using the […] [3-(4,5-dimethylthiazol-2-yl)-2,5-diphenyltetrazolium bromide] assay according to Malich et al, (1997) Toxicology. 124:179-92. In, addition, cell viability in OHSC was measured using propidium iodide (PI) staining according to Laake et al. (1999) Brain Res Brain Res Protoc. 4:173-84.

[4] = tested on: dopaminergic neurons; experiment: Neurite outgrowth, dopaminergic neurons; assay type: cell-based, rat; conditions: DN E14, 72 h
Procedure: as §1
After 72 hours of incubation, the neurons were fixed with 4% (v/v) formaldehyde and immunostained using a primary mouse monoclonal antibody against tyrosine hydroxylase and secondary biotinylated sheep anti-mouse antibodies followed by incubation with peroxidase conjugated streptavidin. 98 images for each experimental condition in each individual experiment were automatically recorded using a computerised microscope workstation described by Walmod et al. (2002) Toxicol Appl Pharmacol. 181:1-15. Briefly, the workstation consisted of an Eclipse TE 300 inverted microscope (Nikon, Tokyo, Japan) equipped with a motorised, movable microscope stage (LUDL Electronic Production Ltd, Hawthorne, N.Y., USA), a 10× objective and a 1100 analogue b/w CCD video camera (DFA, Denmark). A software package Prima developed at the Protein Laboratory (Copenhagen University, Denmark) was used to make a stereologically based determination of neurite length according to Rønn et al., (2000) J Neurosci Methods. 100:25-32).

[5] = tested on: cerebellar granule neurons (CGN); experiment: Survival of CGN induced to undergo apoptosis by low KCl; conditions: for Neuronal Survival (% of Control): Low K+ (5 mM)
Procedure: Cerebella granular meurons (CGN) (e and f) from postnatal day 7 rats were grown at a density of 100,000 cells/cm^2 for 7 days on poly-L-lysine coated microtiter plates in the medium containing 40 mM KCl, then the medium was substituted to a 5 mM KCl containing medium supplemented with various concentrations of FGLd.
For the experiments cerebellar tissue was dissected in modified Krebs-Ringer solution kept on ice, and treated as described for the hippocampal neurons above. All cell cultures were incubated at 37° C. in a humidified atmosphere containing 5% CO2.
Primary cultures of CGN were plated at a density of 100,000 cells/cm^2 on poly-L-lysine coated 8-well permanox slides in Neurobasal-A medium (Gibco, BRL) supplemented with 2% (v/v) B27, 0.5% (v/v) glutamax, 100 U/ml penicillin, 100 μg/ml streptomycin and KCl, making the final concentration of KCl in the medium 40 mM. 24 hours after plating, cytosine-β-D-arabinofuranoside (Ara-C; Sigma-Aldrich) was added to a final concentration of 10 μM to avoid proliferation of glial cells, after which the neurons were allowed to differentiate for further six days at 37° C. Apoptotic cell death was induced by washing twice and changing the medium to Basal Medium Eagle (BME; Gibco BRL) supplemented with 1% (v/v) glutamine, 100 U/ml penicillin and 100 μg/ml streptomycin, 3.5 g D-glucose/l and 1% (v/v) sodium pyruvate (Gibco BRL) together with various concentrations of peptide. Thereby the concentration of potassium in the cultures was reduced to 5 mM KCl. Two days after induction of apoptosis, the cells were fixed with 4% formaldehyde and stained with Hoechst 33258 as described for the survival assay employing hippocampal neurons.

[6] = tested on: dopaminergic neurons; experiment: Survival of dopaminergic neurons exposed to 6-OHDA; assay type: cell-based, rat; conditions: 10 ng/ml; 6-OHDA-treated control cells set to 100%
Procedure: Dopaminergic neurons (DN) (a and b) from day 15 rat embryos grown at a density of 150,000 cells/cm^2 for six days without or with various concentrations of peptide on 24-well cell culture plates coated with poly-D-lysine were exposed to 100 μM 6-OHDA for two hours. Medium was changed and various concentrations of FGLd were added. The neurons were grown for another 24 hours before the cultures they were fixed and immunostained for tyrosine hydroxylase.
Dopaminergic neurons were prepared from Wistar rat embryos at embryonic day 15 (Charles River, Sulzfeld, Germany or Møllegaard, Denmark). A pregnant rat was sacrificed and the uterus was taken out and kept on ice in Hank's balanced salt solution (HBSS; Gibco, BRL). The ventral part of the mesencephalon was dissected from the embryonic brains, homogenised on ice in Gey's balanced salt solution (GBSS; Gibco, BRL) supplemented with 5 g glucose/l (Sigma-Aldrich) and thereafter trypsinised. The dissociated cells were washed in the presence of DNAse 1 and soybean trypsin inhibitor (Sigma-Aldrich).
For the survival assay isolated neurons were seeded at a density of 150,000 cells/cm^2 in 24-well cell culture plates coated with poly-D-lysine as described above. The neurons were left to differentiate for six days without or with various concentrations of the FGL peptide, after which 6-OHDA was added at a concentration of 100 μM for two hours. A stock solution was prepared by dissolving 6-OHDA to a concentration of 10 mM in 0.1% (w/v) sodium metabisulfite in order to prevent oxidation. After two hours with 6-OHDA, the medium was changed to Neurobasal medium with supplements and peptide, and the cell cultures were further incubated for 24 hours, fixed and immunostained for tyrosine hydroxylase. 98 images for each experimental condition in each individual experiment were automatically recorded as described for the dopaminergic neurite outgrowth assay below.

[7] = tested on: hippocampal neurons; experiment: Survival of hippocampal neurons exposed to Aβ25-35; assay type: cell-based, rat; conditions: 50 ng/ml; 20 μM Aβ25-35
Procedure: For the experiments dissociated hippocampal neurons were isolated from Wistar rat embryos at embryonic day 19 or newborn rats as described by Rønn et al. (1999) Nat. Biotechnol. 17:1000-5.
Briefly, hippocampus was isolated from the brain in ice cold modified Krebs Ringer solution, cleared of blood vessels, roughly homogenised by chopping and then trypsinised. The dissociated cells were washed in the presence of DNAse 1 and soybean trypsin inhibitor.
For the assay neurons were plated at a density of 40,000 cells/cm^2 on 8-well permanox slides coated with 10 μg/ml poly-L-lysine in Neurobasal medium. 15 minutes after plating, Aβ25-35 was added to a final concentration of 20 μM. The Aβ25-35 had prior to plating been dissolved in sterile deionized water to a concentration of 3 mM and incubated at 37° C. for four days according to Pigino et al. (2001) J. Neurosci. 21:834-42. This treatment induces fibrillation of the Aβ-peptide fragment, thereby increasing its neurotoxic activity. The neurons were incubated with Neurobasal medium containing the FGL peptide for 70 hours, fixed with 4% (v/v) formaldehyde, and stained with Hoechst 33258 for 25 minutes as described by Kruman et al. (1997). Images of 1000-1500 neurons were randomly recorded for each group in each experiment using computer assisted fluorescence microscopy as described for the hippocampal neurite outgrowth assay. Nuclei from dead and live neurons were counted using the software package Prima developed at the Protein Laborator, Copenhagen University, and the fraction of live neurons relative to the total number of neurons was estimated.

For “11-amino acids fragment of the sequence set forth in SEQ ID NO: 5: SEQ ID NO: 5 (VAENSRGKNVAKG) with two amino acids truncated from the C-terminus; from axonal-associated cell adhesion molecule (Axonal-associated cell adhesion molecule [NCBI: NP_446331]: FGFR binding motif)”, the “maximal effect, increase in neurite length of rat hippocampal neurons” value [1] was 500%.

Molecule `O=c1cc(N2CCOCC2)oc2c(-c3ccccc3)cccc12` [LY294002] has an FGLd-induced neurite outgrowth (% of FGLd-treated control) at 3.5 µM ([2]; 3.5 μM inhibitor) of 90% and an FGLd-induced neurite outgrowth (% of FGLd-treated control) at 10 µM ([2]; 10 μM inhibitor) of roughly 50%.

For EVYVVAENMGKSKA [FGLc], the “PI staining (cell damage) after 10 minutes of OGD” value [3] was “did not affect cell damage induced by OGD”.

“EVYVVAENQQGKSKA (NCAM Fn III, 2 [Swiss-Prot: P13591]: FGFR binding motif) [FGLm]” was tested, and the “Effect on Neurite Length (Percent Increase vs. Control)” value ([4]; 10 μg/mL) was 15%, the “Effect on Neurite Length (Percent Increase vs. Control)” value ([4]; 50 μg/mL) was 23% and the “Effect on Neurite Length (Percent Increase vs. Control)” value ([4]; 250 μg/mL) was 28%. For the same molecule, the “Neuronal Survival (% of Control)” value ([5]; CGN (PND 3-4), 250 μg/mL) was 125%* % of Control, the “Neuronal Survival (% of Control)” value ([5]; CGN (PND 7-8), 10 μg/mL) was 110%* % of Control and the “Neuronal Survival (% of Control)” value ([5]; CGN (PND 7-8), 50 μg/mL) was 119%* % of Control. The “Neuronal Survival (% of Control)” value ([5]; CGN (PND 7-8), 250 μg/mL) was 142%* % of Control.

In the case of IGF-1: insulin-like growth factor 1, the “rescue of CGN from low KCl-induced cell death” value ([5]; 50 ng/ml, 5 mM KCl) is reported as “could be rescued”.

B1: GDNF: glia derived neurotrophic factor (protein, UniProt P39905 78-211, looked up)
Glial cell line-derived …: SPDKQMAVLPRRERNRQAAAANPENSRGKGRRGQRGKNRGCVLTAIHLNVTDLGLGYETKEELIFRYCSGSCDAAETTYDKILKNLSRNRRLVSDKVGQACCRPIAFDDDLSFLDDNLVYHILRKHSAKRCGCI
With B1 the “survival of dopaminergic neurons treated with 6-OHDA” value [6] was 150%.

B2: BDNF: brain derived neurotrophic factor (protein, UniProt P23560 19-247, looked up)
Neurotrophic factor BDNF …: APMKEANIRGQGGLAYPGVRTHGTLESVNGPKAGSRGLTSLADTFEHVIEELLDEDQKVRPNEENNKDADLYTSRVMLSSQVPLEPPLLFLLEEYKNYLDAANMSMRVRRHSDPARRGELSVCDSISEWVTAADKKTAVDMSGGTVTVLEKVPVSKGQLKQYFYETKCNPMGYTKEGCRGIDKRHWNSQCRTTQSYVRALTMDSKKRIGWRFIRIDTSCVCTLTIKRGR
For B2, the “rescue of hippocampal neurons from Aβ25-35-induced cell loss” value [7] was “could in part be rescued”.

From US20090105149A1, “Compounds comprising lpa” (ENKAM PHARMACEUTICALS A/S, priority 2003, published 2009)
